In patent US20180049444A1, “XENORHABDUS SZENTIRMAII METABOLITES, TRANS-CINNAMIC ACID, AND ANALOGS THEREOF AS ENHANCERS OF FUNGICIDAL ACTIVITY” (priority 2016, published 2018):

What was measured:
[1] = tested on: Monilinia fructicola (brown rot); assay: Synergy assessment of TCA and trans-Cinnamaldehyde with commercial fungicides, growth area on PDA after 4 days; format: cell-based; details: FIG. 11
Excerpt: Following the procedures above and those in Hazir et al (2017b, J. Invertebrate Path. 145: 1-8), synergy assessments were implemented to compare trans-Cinnamic acid to an exemplary analog, trans-Cinnamaldehyde. The target phytopathogen was Monilinia fructicola (brown rot). Treatment effects were compared by measuring vegetative growth of the phytopathogens in vitro when they were exposed to the fungicidal agents applied alone or in combination. Solutions of the fungicidal treatments were incorporated into potato dextrose agar (PDA) to achieve the desired concentrations, and autoclaved. Prior to autoclaving the PDA, the prescribed volume of distilled water was reduced to allow addition of the fungicide solutions. Controls consisted of PDA without any amendment or PDA with acetone only (the solvent used for TCA). Trans-Cinnamic acid and trans-Cinnamaldehyde were applied alone or with commercial fungicides […]® (extract of Reynoutria sachalinensis) or Serenade® (Bacillus subtilis). After 4 days the area of M. fructicola growth was determined. […] [table]

Venturia carpophila [2] = assay: Suppression of spore germination in potato dextrose broth with 10% bacterial supernatant or TCA; format: cell-based; details: V. carpophila
Procedure: (§1) The spores of V. carpophila and V. effusa were used to determine the inhibitory effect of the bacterial supernatants on germination. Supernatants tested were from X. nematophila, X. cabanillasii, X. bovienii, X. szentirmaii, strain 17C+E, P. temperate, P. luminescens (VS) and P. luminescens (K-22). The conidia suspension (0.1 ml) of V. effusa or V. carpophila was added to 0.8 ml potato dextrose broth (PDB) in 2 ml eppendorf tubes containing 0.1 ml (10% v/v) bacterial supernatant. Controls were PDB alone and conidial suspension without supernatant. Because TCA derived from Photorhabdus spp. was identified as an active compound with significant antifungal activity (Bock et al. 2014), TCA was added (1.27 mg/ml) in all experiments for comparison as well. The stock solution of TCA (99% purity, Sigma, St. Louis, Mo.) was prepared with 12.7 g dissolved in 100 ml ethanol (96%). Each treatment was replicated three times, and the experiment was repeated once on a different date. The tubes were incubated at 25° C. for 48 hours and the first 100 conidia were counted under the microscope (400×) to determine percentage spore germination (which was used to determine treatment effects). […] An inhibition rate was determined according to the formula: 100×[(the average percentage of spores germinated in the control−the average percentage of spores germinated in the treatment)/the average percentage of spores germinated in the control] (Fang et al. 2011). Analysis of Variance (ANOVA) (SAS V9.3, SAS Institute Inc., Cary, N.C.) was also applied to the data for V. carpophila.

V. effusa = assay: as above; format: cell-based, Venturia effusa
Procedure: as §1, with “Each treatment was replicated three times, and the experiment was repeated once on a different date.” left out, “(Fang et al. 2011). Analysis of Variance (ANOVA) (SAS V9.3, SAS Institute Inc., Cary, N.C.) was also applied to the data for V. carpophila.” left out

Glomerella cingulata = assay: Suppression of in vitro vegetative growth (colony area) on agar amended with 10% supernatant or TCA; format: cell-based; details: G. cingulata; FIG. 2; 7 days
Monilinia fructicola = assay: as above; format: cell-based; details: M. fructicola; FIG. 3; 7 days
Venturia carpophila [3] = assay: as above; format: cell-based; details: V. carpophila; FIG. 5; 7 days
Excerpt: (§2) Treatment effects were compared by measuring in vitro vegetative growth of the phytopathogens V. carpophila and V. effusa when exposed to the same bacterial exudates evaluated above in the germination study. Solutions of the fungicidal treatments were incorporated into PDA and autoclaved. Prior to autoclaving the PDA, the prescribed volume of distilled water was reduced to allow addition of treatment suspensions. Controls consisted of PDA without any amendment or PDA with acetone only (the solvent for TCA). The media were vortexed when cooled to 40-42° C. and poured to Petri dishes.
(§3) A 5 mm diameter mycelia plug from a fungal culture plate was transferred onto the center surface of each agar dish (Fang et al. 2011; Hazir et al. 2017a) and incubated at 25° C. Vegetative growth of the fungus was measured after 7 days. Growth was measured in two perpendicular directions to obtain the approximate area of the fungal mat.

Venturia effusa = assay: as above; format: cell-based; details: V. effusa; FIG. 4; 7 days
Excerpt: as §2, §3

Row | Compound | Interaction (level of M. fructicola suppression) when combined with commercial fungicides such as Regalia and Serenade [1] | percentage spore germination (Venturia carpophila [2]; 10% supernatant or TCA 1.27 mg/ml, 48 hours) [%] | level of suppression of spore germination compared among treatments (Venturia carpophila [2]; FIG. 1) | inhibition at 1270 µg/mL (Venturia carpophila [2]; Venturia carpophila, 10% v/v supernatant or TCA 1.27 mg/ml, 48 hours at 25° C., read-out: Inhibition rate of spore germination (%)) [%] | percentage spore germination compared among treatments (V. effusa) | inhibition at 1270 µg/mL (V. effusa; Venturia effusa, 10% v/v supernatant or TCA 1.27 mg/ml, 48 hours at 25° C., read-out: Inhibition rate of spore germination (%)) [%] | suppression of vegetative growth compared among treatments (Glomerella cingulata) | suppression of vegetative growth compared among treatments (Monilinia fructicola) | suppression of vegetative growth compared among treatments (Venturia carpophila [3]) | suppression of vegetative growth compared among treatments (Venturia effusa)
1 | O=C/C=C/c1ccccc1 [CA, trans-Cinnamaldehyde] | synergistic | – | – | – | – | – | – | – | – | –
2 | O=C(O)/C=C/c1ccccc1 [TCA, trans-Cinnamic acid] | synergistic | 8.66 | highest level of suppression | 87.7 | the least | 76.7 | most suppression | greatest suppression | most suppression | highest suppression
